Source: patent publication US5455356A, “Fungicidal 1-aryl-1-[α-(triazolyl)alkyl]-1-silacycloalkanes and their preparation methods” (priority 1993, dated 1995)
Read-outs that look alike come from different tables or passages of the source.

Legend:
Assay type in all cases: cell-based
[1] = test system: Rhizopus sp.; assay: In vitro mycelial/spore growth on potato-sucrose-agar, percent disease control (RS, second column); conditions: read-out: % controlled, RS
Method: (§1) The compounds of this invention were dissolved respectively in acetone in an amount equal to 10% of the final volume and then in purified water at the concentration of 100 ppm and 50 ppm.
(§2) Each of the solution was mixed with potato-sucrose-agar medium in 6" petri dish and one of the fungi was spotted at the center of the dish. The dish was incubated in growth room for several days. The percent disease control was derived from the radii of spore growth. The screening tests in vitro condition are well-known to those skilled in the art.
(§3) The following fungi were used for the screening.
9) Rhi. sp.; Rhizopus sp.

[2] = test system: GC; assay: In vitro mycelial/spore growth on potato-sucrose-agar, percent disease control (GC); conditions: read-out: % controlled, GC; for inhibition of growth at 50 ppm: GC
Method: as §1, §2, §3

[3] = test system: Pyricalaria oryzae; assay: In vitro mycelial/spore growth on potato-sucrose-agar, percent disease control (PO); conditions: read-out: % controlled, PO
Method: as §1, §2, §3
6) Py. or.; Pyricalaria oryzae

[4] = test system: Phytophthora capsisi; assay: In vitro mycelial/spore growth on potato-sucrose-agar, percent disease control (PC); conditions: read-out: % controlled, PC
Method: as §1, §2, §3
2) Phy. ca.; Phytophthora capsisi

[5] = test system: Botryosphaeri; assay: In vitro mycelial/spore growth on potato-sucrose-agar, percent disease control (BD); conditions: read-out: % controlled, BD
Method: as §1, §2, §3
4) Bo. do (Ma); Botryosphaeri

[6] = test system: Rhizoctonia solani; assay: In vitro mycelial/spore growth on potato-sucrose-agar, percent disease control (RS, first column); conditions: read-out: % controlled, RS
Method: as §1, §2, §3
7) Rhi. so.; Rhizoctonia solani

[7] = test system: Botritis cinerea; assay: In vitro mycelial/spore growth on potato-sucrose-agar, percent disease control (BC); conditions: read-out: % controlled, BC
Method: as §1, §2, §3
10) Bo. ci.; Botritis cinerea

[8] = test system: Fusarium moniliforme; assay: In vitro mycelial/spore growth on potato-sucrose-agar, percent disease control (FM); conditions: Fusarium verticillioides, read-out: % controlled, FM
Method: as §1, §2, §3
8) Fu. mo.; Fusarium moniliforme

Structure (SMILES) | inhibition of growth at 50 ppm ([1]; 50 ppm, Rhizopus sp.) | inhibition of growth at 200 ppm ([1]; Rhizopus) | inhibition of growth at 50 ppm [2] | inhibition of growth at 200 ppm [2] | inhibition of growth at 50 ppm [3] | inhibition of growth at 200 ppm [3] | inhibition of growth at 50 ppm [4] | inhibition of growth at 200 ppm [4] | inhibition of growth at 50 ppm [5] | inhibition of growth at 200 ppm [5] | inhibition of growth at 50 ppm [6] | inhibition of growth at 200 ppm [6] | inhibition of growth at 50 ppm [7] | inhibition of growth at 200 ppm [7] | inhibition of growth at 50 ppm ([8]; 50 ppm, Fusarium moniliforme) | inhibition of growth at 200 ppm ([8]; Fusarium moniliforme) | inhibition of growth at 50 ppm ([1]; Rhizopus) | inhibition of growth at 50 ppm [8]
Clc1ccc([Si]2(Cn3cncn3)CCCCC2)cc1 [1-(4-chlorophenyl)-1-(1H-1,2,4-triazole-1-yl)methyl-1-silacyclohexane] | 50% | 92% | 100% | 100% | 100% | 100% | 90% | 100% | 100% | 100% | 57% | 69% | 100% | 100% | 100% | 100% |  | 
Clc1ccc([Si]2(Cn3cncn3)CCCC2)cc1 [1-(4-chlorophenyl)-1-(1H-1,2,4-triazole-1-yl)methyl-1-silacyclopentane] | 67% | 75% | 100% | 100% | 100% | 100% | 15% | 98% | 70% | 99% | 95% | 100% | 100% | 100% | 100% | 100% |  | 
CC(n1cncn1)[Si]1(c2ccc(Cl)cc2)CCCCC1 (stereo not drawn) [1-(4-chlorophenyl)-1-[α-(1H-1,2,4-triazole-1-yl)ethyl]-1-silacyclohexane] | 77% | 90% | 100% | 100% | 100% | 100% | 75% | 100% | 100% | 100% | 100% | 100% | 100% | 100% | 100% | 100% |  | 
CC(n1cncn1)[Si]1(c2ccc(Cl)cc2)CCCC1 (stereo not drawn) [1-(4-chlorophenyl)-1-[α-(1H-1,2,4-triazole-1-yl)ethyl]-1-silacyclopentane] | 42% | 60% | 100% | 100% | 100% | 100% | 30% | 100% | 100% | 100% | 100% | 100% | 100% | 100% | 100% | 100% |  | 
CCOc1ccc([Si]2(Cn3cncn3)CCCCC2)cc1 [1-(4-ethoxyphenyl)-1-(1H-1,2,4-triazole-1-yl)methyl-1-silacyclohexane] | 54% | 85% | 100% | 100% | 100% | 100% | 65% | 87% | 79% | 100% | 94% | 100% | 74% | 94% | 73% | 99% |  | 
CCOc1ccc([Si]2(Cn3cncn3)CCCC2)cc1 [1-(4-ethoxyphenyl)-1-(1H-1,2,4-triazole-1-yl)methyl-1-silacyclopentane] | 66% | 77% | 100% | 100% | 100% | 100% | 40% | 100% | 82% | 89% | 72% | 100% | 70% | 74% | 68% | 79% |  | 
CCOc1ccc([Si]2(C(C)n3cncn3)CCCCC2)cc1 (stereo not drawn) [1-(4-ethoxyphenyl)-1-[α-(1H-1,2,4-triazole-1-yl)ethyl]-1-silacyclohexane] | 34% | 56% | 100% | 100% | 100% | 100% | 45% | 75% | 92% | 100% | 97% | 100% | 65% | 98% | 65% | 98% |  | 
CCOc1ccc([Si]2(C(C)n3cncn3)CCCC2)cc1 (stereo not drawn) [1-(4-ethoxyphenyl)-1-[α-(1H-1,2,4-triazole-1-yl)ethyl]-1-silacyclopentane] | 63% | 90% | 100% | 100% | 100% | 100% | 43% | 91% | 70% | 95% | 100% | 100% | 79% | 94% | 93% | 100% |  | 
Fc1ccc([Si]2(Cn3cncn3)CCCCC2)cc1 [1-(4-fluorophenyl)-1-(1H-1,2,4-triazole-1-yl)methyl-1-silacyclohexane] | 75% | 93% | 100% | 100% | 96% | 100% | 47% | 74% | 100% | 100% | 55% | 59% | 100% | 100% | 100% | 100% |  | 
Fc1ccc([Si]2(Cn3cncn3)CCCC2)cc1 [1-(4-fluorophenyl)-1-(1H-1,2,4-triazole-1-yl)methyl-1-silacyclopentane] |  | 83% | 100% | 100% | 100% | 100% | 80% | 100% | 100% | 100% | 95% | 100% | 100% | 100% |  | 100% | 75% | 10%
CC(n1cncn1)[Si]1(c2ccc(F)cc2)CCCCC1 (stereo not drawn) [1-(4-fluorophenyl)-1-[α-(1H-1,2,4-triazole-1-yl)ethyl]-1-silacyclohexane] | 76% | 86% | 100% | 100% | 100% | 100% | 77% | 85% | 100% | 100% | 100% | 100% | 100% | 100% | 100% | 100% |  | 
CC(n1cncn1)[Si]1(c2ccc(F)cc2)CCCC1 (stereo not drawn) [1-(4-fluorophenyl)-1-[α-(1H-1,2,4-triazole-1-yl)ethyl]-1-silacyclopentane] | 59% | 75% | 100% | 100% | 100% | 100% | 45% | 100% | 100% | 100% | 100% | 100% | 100% | 100% | 94% | 100% |  | 
